Data as given in PMC12207908, “The broad‐spectrum antimicrobial peptide BMAP‐27B potentiates carbapenems against NDM‐producing pathogens in food animals” (mLife, 2025).
Converted amounts (≈) assume the structure as drawn. No end group written: not given here.

Key:
[1] = tested on: En. faecium (Clinical; MDR; pig, faeces), lower row; assay: MIC, broth microdilution; type: cell-based; conditions: Enterococcus faecium, En. faecium clinical MDR isolate, MHB, 16–18 h, 37°C, independent triplicates
Experimental: (§1) The MIC of BMAP‐27B and other antibiotics was determined using the broth microdilution method, following the guidelines established by the Clinical and Laboratory Standards Institute (CLSI). Briefly, the bacterial cultures were grown to the logarithmic growth phase and subsequently diluted in Mueller–Hinton broth (MHB) to achieve a final concentration of 1 × 10^6 CFU/ml. BMAP‐27B and the other antibiotics were prepared in twofold serial dilutions in MHB and mixed with an equal volume of bacterial suspension in 96‐well polypropylene microtiter plates.

[2] = tested on: CREC5; assay: MIC, broth microdilution; type: cell-based; conditions: Escherichia coli, MHB, 1 × 10^6 CFU/ml, 16–18 h, 37°C, independent triplicates
Experimental: as §1

[3] = tested on: CRKP1; assay: MIC, broth microdilution; type: cell-based; conditions: Klebsiella pneumoniae, MHB, 1 × 10^6 CFU/ml, 16–18 h, 37°C, independent triplicates
Experimental: as §1

[4] = tested on: CREC4; assay: MIC, broth microdilution; type: cell-based; conditions: Escherichia coli, MHB, 1 × 10^6 CFU/ml, 16–18 h, 37°C, independent triplicates
Experimental: as §1

[5] = tested on: CREC6; assay: MIC, broth microdilution; type: cell-based; conditions: Escherichia coli, MHB, 1 × 10^6 CFU/ml, 16–18 h, 37°C, independent triplicates
Experimental: as §1

[6] = tested on: CRAB1; assay: MIC, broth microdilution; type: cell-based; conditions: Acinetobacter baumannii, MHB, 1 × 10^6 CFU/ml, 16–18 h, 37°C, independent triplicates
Experimental: as §1

[7] = tested on: CRKP3; assay: MIC, broth microdilution; type: cell-based; conditions: Klebsiella pneumoniae, MHB, 1 × 10^6 CFU/ml, 16–18 h, 37°C, independent triplicates
Experimental: as §1

[8] = tested on: S. aureus ATCC; assay: MIC, broth microdilution; type: cell-based; conditions: Staphylococcus aureus, MHB, 1 × 10^6 CFU/ml, 16–18 h, 37°C, independent triplicates
Experimental: as §1

[9] = tested on: CRCB2; assay: MIC, broth microdilution; type: cell-based; conditions: Citrobacter, MHB, 1 × 10^6 CFU/ml, 16–18 h, 37°C, independent triplicates
Experimental: as §1

[10] = tested on: CRKP4; assay: MIC, broth microdilution; type: cell-based; conditions: Klebsiella pneumoniae, MHB, 1 × 10^6 CFU/ml, 16–18 h, 37°C, independent triplicates
Experimental: as §1

[11] = tested on: CRCB1; assay: MIC, broth microdilution; type: cell-based; conditions: Citrobacter, MHB, 1 × 10^6 CFU/ml, 16–18 h, 37°C, independent triplicates
Experimental: as §1

[12] = tested on: P. aeruginosa UCBPP-PA14; assay: MIC, broth microdilution; type: cell-based; conditions: Pseudomonas aeruginosa, MHB, 1 × 10^6 CFU/ml, 16–18 h, 37°C, independent triplicates
Experimental: as §1

[13] = tested on: CRKP2; assay: MIC, broth microdilution; type: cell-based; conditions: Klebsiella pneumoniae, MHB, 1 × 10^6 CFU/ml, 16–18 h, 37°C, independent triplicates
Experimental: as §1

[14] = tested on: CRKP6; assay: MIC, broth microdilution; type: cell-based; conditions: Klebsiella pneumoniae, MHB, 1 × 10^6 CFU/ml, 16–18 h, 37°C, independent triplicates
Experimental: as §1

[15] = tested on: CREC3; assay: MIC, broth microdilution; type: cell-based; conditions: Escherichia coli, MHB, 1 × 10^6 CFU/ml, 16–18 h, 37°C, independent triplicates
Experimental: as §1

[16] = tested on: PRCB1; assay: MIC, broth microdilution; type: cell-based; conditions: Citrobacter, MHB, 1 × 10^6 CFU/ml, 16–18 h, 37°C, independent triplicates
Experimental: as §1

[17] = tested on: CRCB3; assay: MIC, broth microdilution; type: cell-based; conditions: Citrobacter, MHB, 1 × 10^6 CFU/ml, 16–18 h, 37°C, independent triplicates
Experimental: as §1

[18] = tested on: CREC1; assay: MIC, broth microdilution; type: cell-based; conditions: Escherichia coli, MHB, 1 × 10^6 CFU/ml, 16–18 h, 37°C, independent triplicates
Experimental: as §1

[19] = tested on: CREC7; assay: MIC, broth microdilution; type: cell-based; conditions: Escherichia coli, MHB, 1 × 10^6 CFU/ml, 16–18 h, 37°C, independent triplicates
Experimental: as §1

[20] = tested on: Salmonella SL1344; assay: MIC, broth microdilution; type: cell-based; conditions: MHB, 1 × 10^6 CFU/ml, 16–18 h, 37°C, independent triplicates
Experimental: as §1

[21] = tested on: PREC2; assay: MIC, broth microdilution; type: cell-based; conditions: Escherichia coli, MHB, 1 × 10^6 CFU/ml, 16–18 h, 37°C, independent triplicates
Experimental: as §1

[22] = tested on: PREC1; assay: MIC, broth microdilution; type: cell-based; conditions: Escherichia coli, MHB, 1 × 10^6 CFU/ml, 16–18 h, 37°C, independent triplicates
Experimental: as §1

[23] = tested on: En. faecium (Clinical; MDR; pig, faeces), upper row; assay: MIC, broth microdilution; type: cell-based; conditions: Enterococcus faecium, En. faecium clinical MDR isolate, MHB, 16–18 h, 37°C, independent triplicates
Experimental: as §1

[24] = tested on: CRAB2; assay: MIC, broth microdilution; type: cell-based; conditions: Acinetobacter baumannii, MHB, 1 × 10^6 CFU/ml, 16–18 h, 37°C, independent triplicates
Experimental: as §1

[25] = tested on: CRKP5; assay: MIC, broth microdilution; type: cell-based; conditions: Klebsiella pneumoniae, MHB, 1 × 10^6 CFU/ml, 16–18 h, 37°C, independent triplicates
Experimental: as §1

[26] = tested on: CREC2; assay: MIC, broth microdilution; type: cell-based; conditions: Escherichia coli, MHB, 1 × 10^6 CFU/ml, 16–18 h, 37°C, independent triplicates
Experimental: as §1

[27] = tested on: PREC3; assay: MIC, broth microdilution; type: cell-based; conditions: Escherichia coli, MHB, 1 × 10^6 CFU/ml, 16–18 h, 37°C, independent triplicates
Experimental: as §1

[28] = tested on: P. aeruginosa UCBPP-PA01; assay: MIC, broth microdilution; type: cell-based; conditions: Pseudomonas aeruginosa, UCBPPPA01, MHB, 1 × 10^6 CFU/ml, 16–18 h, 37°C, independent triplicates
Experimental: as §1

[29] = tested on: CRKP2; assay: Mouse peritonitis model induced by CRKP2; type: in vivo, BALB/c mice; conditions: 1.0 × 10^8 CFU CRKP2 i.p.; treatment at 1 and 6 h; BMAP‐27B 3, 6 or 9 mg/kg, MEM 10 mg/kg, combination 3 + 10 mg/kg; tissues 24 h after infection
Experimental: Male BALB/c mice were used in this study, with six mice per group. The mice were infected via an intraperitoneal injection with a suspension of 1.0 × 10^8 CFU of CRKP2. At 1 and 6 h postinfection, the mice were treated with PBS, BMAP‐27B at doses of 3, 6, or 9 mg/kg, MEM at 10 mg/kg alone, or a combination of BMAP‐27B (3 mg/kg) and MEM (10 mg/kg). After 24 h of bacterial challenge, the surviving mice were euthanized by cervical dislocation. The kidneys, livers, spleens, and lungs of each mouse were harvested within […] postinfection. A portion of these organs was taken for histologic analysis using H&E staining, while the remaining tissue samples were weighed, homogenized in sterile normal saline, and serially diluted in saline. A volume of 100 µl of the homogenate dilutions was uniformly plated onto agar plates containing MEM (8 μg/ml). After overnight incubation at 37°C, colonies were counted and the results were expressed as CFU/g.

[30] = tested on: BALB/c mice; assay: In vivo biocompatibility; conditions: 5, 10, and 20 mg/kg intraperitoneal, once daily
Experimental: Male BALB/c mice (6–8 weeks of age, 18 ± 2 g) were purchased from Tengxin Biotechnology Co., Ltd., for the animal studies. Healthy male BALB/c mice were randomly divided into four groups, with six mice per group. Mice in the three experimental groups received intraperitoneal injections of peptide solutions at doses of 5, 10, and 20 mg/kg, while the control group received injections of PBS. Injections were administered once daily for five consecutive days, and the body weight of each mouse was recorded daily. On the sixth day, the mice were euthanized under deep anesthesia and blood samples were collected for biochemical analysis, including AST, CREA, UREA, and ALT. The livers and kidneys were subsequently weighed, fixed in 4% paraformaldehyde, and subjected to histopathological examination using H&E staining.

[31] = tested on: bacterial suspension; assay: Antimicrobial activity in varying concentrations of proteases and serum; type: in vitro ADME; conditions: trypsin or proteinase K, 1:1 (v/v) incubation 1 h, diluted to 2×MIC, then 18-24 h at 37℃ with bacteria (Figure S1)
Experimental: The above mixture was added to the bacterial suspension and incubated at 37℃ for 18-24 hours. Finally, the absorbance of […] was measured and used to calculate the survival rate of bacteria.

[32] = tested on: CREC6 and CRKP2; type: in vitro ADME, Escherichia coli and Klebsiella pneumoniae
Experimental: (§2) The antibacterial activity of the treated peptide was determined using CREC6 and CRKP2 as models. Bacterial colony survival was quantified by measuring the absorbance at 600 nm using a microplate reader. The activity of the peptide was also determined in the presence of NaCl to assess its salt sensitivity, with a final NaCl concentration of 400 mM. […] The bactericidal efficacy of BMAP‐27B against bacteria in SIF or SGF was evaluated using the plate counting method at different time points.

[33] = type: binding; conditions: pH 7.4
Experimental: The detailed steps of molecular docking are provided in the Supporting Information. Microcalorimetric experiments were conducted to examine the interaction between BMAP‐27B and the divalent cation zinc (Zn^2+) using ITC to determine the binding affinity of BMAP‐27B for Zn^2+. Both BMAP‐27B and Zn^2+ were dissolved in PBS (pH 7.4). Before the experiment, all samples were degassed in a sonication bath for 10 min. At 25°C, Zn^2+ was sequentially injected into the calorimetric cell containing BMAP‐27B, with a total of 25 injections performed, allowing for a 180‐s equilibration interval between injections. The resulting data were analyzed using software to calculate K d.

[34] = tested on: CREC6; type: in vitro ADME, Escherichia coli
Experimental: as §2

[35] = tested on: Acinetobacter baumannii; type: cell-based
Experimental: as §1

C[C@@H](O)[C@H]1C(=O)N2C(C(=O)O)=C(S[C@@H]3CN[C@H](C(=O)N(C)C)C3)[C@H](C)[C@H]12 [MEM, meropenem]
MIC [1]: 16 µg/mL (≈ 41.7 µM)
MIC [2]: 32 µg/mL (≈ 83.4 µM)
MIC [3]: > 32 µg/mL
MIC [4]: > 32 µg/mL
MIC [5]: 32 µg/mL (≈ 83.4 µM)
MIC [6]: > 32 µg/mL
MIC [7]: > 32 µg/mL
MIC [8]: < 1 µg/mL
MIC [9]: 32 µg/mL (≈ 83.4 µM)
MIC [10]: 32 µg/mL (≈ 83.4 µM)
MIC [11]: 32 µg/mL (≈ 83.4 µM)
MIC [12]: 2 µg/mL (≈ 5.22 µM)
MIC [13]: > 32 µg/mL
MIC [14]: > 32 µg/mL
MIC [15]: 32 µg/mL (≈ 83.4 µM)
MIC [16]: < 1 µg/mL
MIC [17]: 32 µg/mL (≈ 83.4 µM)
MIC [18]: > 32 µg/mL
MIC [19]: 32 µg/mL (≈ 83.4 µM)
MIC [20]: < 1 µg/mL
MIC [21]: < 1 µg/mL
MIC [22]: < 1 µg/mL
MIC [23]: 8 µg/mL (≈ 20.9 µM)
MIC [24]: > 32 µg/mL
MIC [25]: 32 µg/mL (≈ 83.4 µM)
MIC [26]: 16 µg/mL (≈ 41.7 µM)
MIC [27]: < 1 µg/mL
MIC [28]: < 1 µg/mL
bacterial titers in the liver, spleen, lung, and kidneys compared to the infection group [29]: only slightly lower

GRFKRLRKKLKKLFKKLSPVIPLLHLG [BMAP-27B]
relative weights of the heart, liver, spleen, and kidneys [30]: no significant differences
protease concentration resulting in loss of activity [31]: above 200 μg/ml
efficacy after co‐incubation with fetal bovine serum [32]: maintained considerable efficacy
Kd [33]: 31.36 µM
activity in simulated intestinal fluid (SIF) [34]: no activity
viable bacterial count after incubation with simulated gastric fluid (SGF) [34]: lower than that of the control group
MIC [35]: ≤ 6.250 µg/mL
